Among the data in US4473578A, “β-Lactam antibiotics and their use” (Beecham Group Limited, priority 1979, dated 1984) are MIC and M.I.C. values, retold here.

Values after ≈ are worked out from the molar mass of the structure shown. Counter-ions that a name gives are not always drawn. Like-named read-outs stand apart in the source and are kept apart here.

What all share (experiment): MIC in agar
What all share (format): cell-based

For one assay, the system named is Bacillus subtilis A. The conditions noted are these: for MIC: Bacillus subtilis. An excerpt: (§1) a. Antibacterial effectiveness of compounds of
(§2) Examples 6 and 7 in agar.
(§3) (μg/ml) in agar of compound

The subject of another assay is Citrobacter freundii E8.
Excerpt: as §1, §2, §3

For another assay, the system named is Enterobacter cloacae N1.
Excerpt: as §1, §2, §3

The subject of another assay is Escherichia coli 0111.
Excerpt: as §1, §2, §3

The next assay has as its system Escherichia coli JT39.
Excerpt: as §1, §2, §3

The test system of a further assay is Klebsiella aerogenes A.
Excerpt: as §1, §2, §3

The test system of a further assay is Proteus mirabilis C977.
Excerpt: as §1, §2, §3

A further assay relates to Proteus morganii 1580. The conditions noted are these: for MIC: Morganella morganii.
Excerpt: as §1, §2, §3

For a further assay, the system named is Proteus rettgeri WM16. The note with it: for MIC: Providencia rettgeri.
Excerpt: as §1, §2, §3

The subject of the next assay is Proteus vulgaris W091.
Excerpt: as §1, §2, §3

In the next assay the test system is Pseudomonas aeruginosa A.
Excerpt: as §1, §2, §3

Assay [1] relates to Salmonella typhimurium CT10. The conditions noted are these: for MIC: Salmonella enterica.
Excerpt: as §1, §2, §3

The next assay deals with Serratia marcescens US20.
Excerpt: as §1, §2, §3

The test system of a further assay is Shigella sonnei MB 11967. The note with it: for MIC: MB11967.
Excerpt: as §1, §2, §3

The test system of assay [2] is Staphylococcus aureus 1517.
Excerpt: as §1, §2, §3

Assay [3] relates to Staphylococcus aureus Oxford.
Excerpt: as §1, §2, §3

The subject of assay [4] is Staphylococcus aureus Russell.
Excerpt: as §1, §2, §3

The test system of another assay is Streptococcus faecalis I. The note with it: for MIC: Enterococcus faecalis.
Excerpt: as §1, §2, §3

The subject of another assay is E. coli ESS. The conditions noted are these: Escherichia coli. An excerpt: | (μg/ml) in agar of compound
Assay [5] concerns Streptococcus pyogenes CN10.
Excerpt: as §1, §2, §3

The mark [6] stands for this setting: in agar, Citrobacter freundii E8, read-out: M.I.C.
Where [7] appears, read: in agar, Enterobacter cloacae N1, read-out: M.I.C.
The mark [8] stands for this setting: in agar, Escherichia coli JT39, read-out: M.I.C.
Where [9] appears, read: in agar, Klebsiella aerogenes A, read-out: M.I.C.
The mark [10] stands for this setting: in agar, Proteus mirabilis C977, read-out: M.I.C.
Where [11] appears, read: in agar, Proteus morganii 1580, read-out: M.I.C.
Where [12] appears, read: in agar, Proteus rettgeri WM16, read-out: M.I.C.
[13] abbreviates: in agar, Proteus vulgaris W091, read-out: M.I.C.
[14] abbreviates: in agar, Pseudomonas aeruginosa A, read-out: M.I.C.
Where [15] appears, read: in agar, Salmonella typhimurium CT10, read-out: M.I.C.
The mark [16] stands for this setting: in agar, Serratia marcescens US20, read-out: M.I.C.
Setting [17] is: in agar, Staphylococcus aureus 1517, read-out: M.I.C.
Setting [18] is: in agar, Staphylococcus aureus Oxford, read-out: M.I.C.
Setting [19] is: in agar, Staphylococcus aureus Russell, read-out: M.I.C.
Setting [20] is: in agar, Streptococcus faecalis I, read-out: M.I.C.

As to `C[C@H](OS(=O)(=O)O)[C@@H]1C(=O)N2C(C(=O)O)=C(S/C=C\C(=O)O)C[C@H]12` [Example 22, The Trisodium salt of (5R,6R)-3-[(Z)-2-carboxyethenylthio]-6-[(S)-1-hydroxysulphonyloxyethyl]-7-oxo-1-azabicyclo[3.2.0]hept-2-ene-2-carboxylic acid], the MIC is 0.5 µg/mL in the assay on Bacillus subtilis A; 25 µg/mL in the assay with Citrobacter freundii E8 (setting [6]); 0.5 µg/mL with Enterobacter cloacae N1 (setting [7]); 1.2 µg/mL against Escherichia coli 0111; 1.2 µg/mL in the assay on Escherichia coli JT39 (setting [8]); 1.2 µg/mL in the assay with Klebsiella aerogenes A (setting [9]). The MIC with Proteus mirabilis C977 (setting [10]) was 1.2 µg/mL; with Proteus morganii 1580 (setting [11]), 0.5 µg/mL; in the assay on Proteus rettgeri WM16 (setting [12]) it was 1.2 µg/mL; in the assay on Proteus vulgaris W091 (setting [13]), 1.2 µg/mL; in the assay on Pseudomonas aeruginosa A (setting [14]), above 50 µg/mL; in assay [1] (setting [15]), 1.2 µg/mL. Further, the MIC with Serratia marcescens US20 (setting [16]) was determined as 5 µg/mL; in the assay on Shigella sonnei MB 11967 it was 1.2 µg/mL; in assay [2] (setting [17]), 25 µg/mL; in assay [3] (setting [18]), 2.5 µg/mL; in [4] (setting [19]), 2.5 µg/mL; in the assay with Streptococcus faecalis I (setting [20]), 12.5 µg/mL. Besides, the MIC with E. coli ESS was determined as 1.2 µg/mL.
`CSC1=C(C(=O)[O-])N2C(=O)[C@H]([C@H](C)O)[C@H]2C1.[Na+]` [Example 6, Sodium (5R, 6S)-3-methylthio-6-[(S)-1-hydroxyethyl]-7-oxo-1-azabicyclo[3.2.0]hept-2-ene-2-carboxylate]: the MIC in the assay on Bacillus subtilis A was 25 µg/mL; against Citrobacter freundii E8 (Citrobacter freundii, E8) it was 12.5 µg/mL; with Enterobacter cloacae N1 (Enterobacter cloacae, N1), 28 µg/mL; in the assay on Escherichia coli 0111, 12.5 µg/mL; against Escherichia coli JT39 (Escherichia coli, JT39), 12.5 µg/mL; in the assay on Klebsiella aerogenes A (Klebsiella aerogenes), 12.5 µg/mL. For the same compound, the MIC is 50 µg/mL with Proteus mirabilis C977 (Proteus mirabilis, C977); 25 µg/mL against Proteus morganii 1580 (1580); 25 µg/mL against Proteus rettgeri WM16 (WM16); 25 µg/mL against Proteus vulgaris W091 (Proteus vulgaris, W091); above 100 µg/mL in the assay on Pseudomonas aeruginosa A (Pseudomonas aeruginosa); 12.5 µg/mL in assay [1] (TYPHIMURIUM). The MIC in the assay on Serratia marcescens US20 (Serratia marcescens, US20) was 12.5 µg/mL; against Shigella sonnei MB 11967, 12.5 µg/mL; in [2] (Staphylococcus aureus, 1517), 100 µg/mL; in assay [3] (Staphylococcus aureus), 3.1 µg/mL; in [4] (Staphylococcus aureus), 6.2 µg/mL; against Streptococcus faecalis I, above 100 µg/mL. Also, the MIC in assay [5] (Streptococcus pyogenes, CN10) turned out to be 25 µg/mL.
`C[C@H](O)[C@H]1C(=O)N2C(C(=O)O)=C(S/C=C\C(=O)OCCN)C[C@H]12` [Example 18, (5R,6S)-3-[2-(Z)-(2-Aminoethoxycarbonyl)ethenylthio]-6-[(S)-1-hydroxyethyl]-7-oxo-1-azabicyclo[3.2.0]hept-2-ene-2-carboxylic acid]: the MIC came to 3.1 µg/mL (≈ 9.05 µM) in the assay with Citrobacter freundii E8 (setting [6]); 3.1 µg/mL (≈ 9.05 µM) in the assay on Enterobacter cloacae N1 (setting [7]); 3.1 µg/mL (≈ 9.05 µM) in the assay with Escherichia coli 0111; 3.1 µg/mL (≈ 9.05 µM) with Escherichia coli JT39 (setting [8]); 3.1 µg/mL (≈ 9.05 µM) in the assay with Klebsiella aerogenes A (setting [9]); 12.5 µg/mL (≈ 36.5 µM) with Proteus mirabilis C977 (setting [10]). Also, the MIC turned out to be 3.1 µg/mL (≈ 9.05 µM) with Proteus morganii 1580 (setting [11]); 6.2 µg/mL (≈ 18.1 µM) in the assay on Proteus rettgeri WM16 (setting [12]); 6.2 µg/mL (≈ 18.1 µM) in the assay with Proteus vulgaris W091 (setting [13]); 25 µg/mL (≈ 73 µM) in the assay with Pseudomonas aeruginosa A (setting [14]); 3.1 µg/mL (≈ 9.05 µM) in [1] (setting [15]); 1.2 µg/mL (≈ 3.5 µM) in the assay with Serratia marcescens US20 (setting [16]). For the same compound, the MIC against Shigella sonnei MB 11967 was 3.1 µg/mL (≈ 9.05 µM); in [2] (setting [17]), 6.2 µg/mL (≈ 18.1 µM); in assay [3] (setting [18]), at most 0.1 µg/mL; in [4] (setting [19]), 0.4 µg/mL (≈ 1.17 µM); with Streptococcus faecalis I (setting [20]), 12.5 µg/mL (≈ 36.5 µM); in [5] (in agar, Streptococcus pyogenes CN10, read-out: M.I.C.), at most 0.1 µg/mL. The MIC against E. coli ESS is 1 µg/mL (≈ 2.92 µM).
Consider `CCSC1=C(C(=O)[O-])N2C(=O)[C@H]([C@H](C)O)[C@H]2C1.[Na+]` [Example 7], for which the M.I.C. with Bacillus subtilis A (in agar, Bacillus subtilis A) was determined as 5.0 µg/mL; with Citrobacter freundii E8 (in agar, Citrobacter freundii E8), 2.5 µg/mL; in the assay with Enterobacter cloacae N1 (in agar, Enterobacter cloacae N1), 5.0 µg/mL; with Escherichia coli 0111 it was 5.0 µg/mL; in the assay with Escherichia coli JT39 (in agar, Escherichia coli JT39), 2.5 µg/mL; in the assay with Klebsiella aerogenes A (in agar, Klebsiella aerogenes A) it was 2.5 µg/mL. Further, the M.I.C. is 12.5 µg/mL in the assay on Proteus mirabilis C977 (in agar, Proteus mirabilis C977); 2.5 µg/mL in the assay on Proteus morganii 1580 (in agar, Proteus morganii 1580); 5.0 µg/mL in the assay on Proteus rettgeri WM16 (in agar, Proteus rettgeri WM16); 5.0 µg/mL in the assay with Proteus vulgaris W091 (in agar, Proteus vulgaris W091); above 50 µg/mL in the assay on Pseudomonas aeruginosa A (in agar, Pseudomonas aeruginosa A); 2.5 µg/mL in assay [1] (in agar, Salmonella typhimurium CT10). Also, the M.I.C. was 5.0 µg/mL in the assay on Serratia marcescens US20 (in agar, Serratia marcescens US20); 5.0 µg/mL in the assay on Shigella sonnei MB 11967; 1.2 µg/mL in assay [3] (in agar, Staphylococcus aureus Oxford); 1.2 µg/mL in [4] (in agar, Staphylococcus aureus Russell); above 50 µg/mL with Streptococcus faecalis I (in agar, Streptococcus faecalis I); 1.2 µg/mL in [5] (in agar, Streptococcus pyogenes CN10).
